Source: patent publication US20230056205A1, “SUBSTITUTED 4,6-DIHYDROSPIRO[[1,2,3]TRIAZOLO[4,5-B]PYRIDINE-7,3'-INDOLINE]-2',5(3H)-DIONE ANALOGUES” (The Board of Regents of The University of Texas System, priority 2019, published 2023)
Where two headings read alike, the source gives them in different places.

Columns and labels:
DENV-1 replicon = test: Luciferase reporter replicon-based screening, DENV-1; type: cell-based, DENV-1 (strain WestPac); settings: Dengue virus, DENV1, Huh-7, 48 h, read-out: EC50 DENV-1
Protocol: (§1) Luciferase Reporter Replicon-Based Screening. Huh7 cells containing a luciferase reporter replicon of DENV-1 (strain WestPac), DENV-2 (New Guinea C strain, NGC), DENV-3 (strain D3MY05-34640) and DENV-4 (strain D4MY01-22713) were used in this study. The replicon cells containing the Renilla luciferase and neomycin-resistance genes were generated using a similar strategy as described previously.^55 Briefly, Huh7 DENV-1 to -4 replicon cells were seeded at a density of 10k per well in a 96-well microplate. After incubation at 37° C. with 5% CO2 overnight, the cells were treated with 2-fold serial dilutions of compounds. Experiments were performed in duplicates. After 48 h of incubation, luciferase activities were measured using the EnduRen live-cell substrate (Promega) by following the manufacturer’s instructions. The dose-dependent curve was plotted and EC50 values were calculated using four parameter logistic regression in GraphPad software Prism 8.0.

DENV-2 replicon = test: Luciferase reporter replicon-based screening, DENV-2; type: cell-based, DENV-2 (New Guinea C strain, NGC)
Protocol: as §1

DENV-3 replicon = test: Luciferase reporter replicon-based screening, DENV-3; type: cell-based, DENV-3 (strain D3MY05-34640)
Protocol: as §1

DENV-4 replicon = test: Luciferase reporter replicon-based screening, DENV-4; type: cell-based, DENV-4 (strain D4MY01-22713); settings: Dengue virus, DENV4, Huh-7, 48 h, read-out: EC50 DENV-4
Protocol: as §1

[1] = Cytotoxicity assay (CellTiter-Glo); type: cell-based; settings: human, Huh7 cells stably expressing DENV-2 replicon
Protocol: Cytotoxicity Assay. Huh7 cells or Huh7 replicon cells were seeded in a 96-well plate. After incubation at 37° C. with 5% CO2 overnight, the cells were treated with 2-fold serial dilutions of compounds. Experiments were performed in duplicates. After 48 h of incubation, cell viability was measured by adding the CellTiter-Glo reagent (Promega) to each well. The cell viability in 0.45% DMSO-treatment groups was treated at 100%. The cell viability in compound-treated wells was normalized to that of DMSO-treated wells. CC50 values were calculated using four parameter logistic regression in GraphPad software Prism 8.0.

[2] = Dengue virus, DENV2, Huh-7, 48 h, read-out: EC50 DENV-2, Huh7 cells stably expressing DENV-2 replicon, 48 h
[3] = Dengue virus, DENV3, Huh-7, 48 h, read-out: EC50 DENV-3, Huh7 cells stably expressing DENV-3 replicon, 48 h
[4] = read-out: EC50 DENV-2, Huh7 cells stably expressing DENV-2 replicon, 48 h

Compound | EC50 (DENV-1 replicon) [nM] | EC50 (DENV-2 replicon; [2]) [nM] | EC50 (DENV-3 replicon; [3]) [nM] | EC50 (DENV-4 replicon) [nM] | CC50 at 48 h [1] [nM] | EC50 (DENV-2 replicon; [4]) [nM] | EC50 (DENV-3 replicon; read-out: EC50 DENV-3, Huh7 cells stably expressing DENV-3 replicon, 48 h) [nM]
C[C@@H](c1ccc(Cl)cc1)n1nnc2c1NC(=O)C[C@]21C(=O)Nc2ccc(Cl)cc21 [Compound 1a, (R)-5'-Chloro-3-((S)-1-(4-chlorophenyl)ethyl)-4,6-dihydrospiro[[1,2,3]triazolo[4,5-b]pyridine-7,3'-indoline]-2',5(3H)-dione] | > 5000 | 39 | 10 | > 5000 | > 10000 | – | –
C[C@@H](c1ccc(Cl)cc1)n1nnc2c1NC(=O)C[C@]21C(=O)N(C)c2ccc(Cl)cc21 [Compound 7, (R)-5'-Chloro-3-((S)-1-(4-chlorophenyl)ethyl)-1'-methyl-4,6-dihydrospiro[[1,2,3]triazolo[4,5-b]pyridine-7,3'-indoline]-2',5(3H)-dione] | > 5000 | 19 | 4 | > 5000 | > 10000 | – | –
CCN1C(=O)[C@]2(CC(=O)Nc3c2nnn3[C@@H](C)c2ccc(Cl)cc2)c2cc(Cl)ccc21 [Compound 8, (R)-5'-Chloro-3-((S)-1-(4-chlorophenyl)ethyl)-1'-ethyl-4,6-dihydrospiro[[1,2,3]triazolo[4,5-b]pyridine-7,3'-indoline]-2',5(3H)-dione] | 2500 | 24 | 6 | > 5000 | > 10000 | – | –
CCCN1C(=O)[C@]2(CC(=O)Nc3c2nnn3[C@@H](C)c2ccc(Cl)cc2)c2cc(Cl)ccc21 [Compound 9, (R)-5'-Chloro-3-((S)-1-(4-chlorophenyl)ethyl)-1'-propyl-4,6-dihydrospiro[[1,2,3]triazolo[4,5-b]pyridine-7,3'-indoline]-2',5(3H)-dione] | 1900 | 71 | 10 | > 5000 | > 10000 | – | –
CCCCN1C(=O)[C@]2(CC(=O)Nc3c2nnn3[C@@H](C)c2ccc(Cl)cc2)c2cc(Cl)ccc21 [Compound 10, (R)-1'-Butyl-5'-chloro-3-((S)-1-(4-chlorophenyl)ethyl)-4,6-dihydrospiro[[1,2,3]triazolo[4,5-b]pyridine-7,3'-indoline]-2',5(3H)-dione] | 1300 | 75 | 18 | > 5000 | > 10000 | – | –
CCCCCCN1C(=O)[C@]2(CC(=O)Nc3c2nnn3[C@@H](C)c2ccc(Cl)cc2)c2cc(Cl)ccc21 [Compound 11, (R)-5'-Chloro-3-((S)-1-(4-chlorophenyl)ethyl)-1'-hexyl-4,6-dihydrospiro[[1,2,3]triazolo[4,5-b]pyridine-7,3'-indoline]-2',5(3H)-dione] | 830 | 810 | 140 | > 5000 | > 10000 | – | –
CCCCCCCCCCN1C(=O)[C@]2(CC(=O)Nc3c2nnn3[C@@H](C)c2ccc(Cl)cc2)c2cc(Cl)ccc21 [Compound 12, (R)-5'-Chloro-3-((S)-1-(4-chlorophenyl)ethyl)-1'-decyl-4,6-dihydrospiro[[1,2,3]triazolo[4,5-b]pyridine-7,3'-indoline]-2ʹ,5(3H)-dione] | 3400 | > 10000 | 1200 | 7300 | > 10000 | – | –
CC(C)N1C(=O)[C@]2(CC(=O)Nc3c2nnn3[C@@H](C)c2ccc(Cl)cc2)c2cc(Cl)ccc21 [Compound 13, (R)-5'-Chloro-3-((S)-1-(4-chlorophenyl)ethyl)-1'-isopropyl-4,6-dihydrospiro[[1,2,3]triazolo[4,5-b]pyridine-7,3ʹ-indoline]-2',5(3H)-dione] | 5700 | 23 | 9 | > 5000 | > 10000 | – | –
CC(C)CN1C(=O)[C@]2(CC(=O)Nc3c2nnn3[C@@H](C)c2ccc(Cl)cc2)c2cc(Cl)ccc21 [Compound 14, (R)-5'-Chloro-3-((S)-1-(4-chlorophenyl)ethyl)-1'-isobutyl-4,6-dihydrospiro[[1,2,3]triazolo[4,5-b]pyridine-7,3'-indoline]-2',5(3H)-dione] | 1300 | 150 | 20 | > 5000 | > 10000 | – | –
C[C@@H](c1ccc(Cl)cc1)n1nnc2c1NC(=O)C[C@]21C(=O)N(Cc2ccc(F)cc2)c2ccc(Cl)cc21 [Compound 25, (R)-5'-Chloro-3-((S)-1-(4-chlorophenyl)ethyl)-1'-(4-fluorobenzyl)-4,6-dihydrospiro[[1,2,3]triazolo[4,5-b]pyridine-7,3'-indoline]-2',5(3H)-dione] | 5000 | 140 to 290 | – | 10000 | > 10000 | 160 | –
C[C@@H](c1ccc(Cl)cc1)n1nnc2c1NC(=O)C[C@]21C(=O)N(Cc2cccc(F)c2)c2ccc(Cl)cc21 [Compound 26, (R)-5'-Chloro-3-((S)-1-(4-chlorophenyl)ethyl)-1'-(3-fluorobenzyl)-4,6-dihydrospiro[[1,2,3]triazolo[4,5-b]pyridine-7,3'-indoline]-2',5(3H)-dione] | 10000 | – | – | > 5000 | > 10000 | – | –
COCOCCN1C(=O)[C@]2(CC(=O)Nc3c2nnn3[C@@H](C)c2ccc(Cl)cc2)c2cc(Cl)ccc21 [Compound 38, (R)-5'-Chloro-3-((S)-1-(4-chlorophenyl)ethyl)-1'-(2-(methoxymethoxy)ethyl)-4,6-dihydrospiro[[1,2,3]triazolo[4,5-b]pyridine-7,3'-indoline]-2',5(3H)-dione] | > 5000 | – | – | > 5000 | > 10000 | – | –
CCOC(CN1C(=O)[C@]2(CC(=O)Nc3c2nnn3[C@@H](C)c2ccc(Cl)cc2)c2cc(Cl)ccc21)OCC [Compound 41, (R)-5'-Chloro-3-((S)-1-(4-chlorophenyl)ethyl)-1'-(2,2-diethoxyethyl)-4,6-dihydrospiro[[1,2,3]triazolo[4,5-b]pyridine-7,3ʹ-indoline]-2',5(3H)-dione] | > 5000 | – | – | > 5000 | > 10000 | – | –
COC(=O)CN1C(=O)[C@]2(CC(=O)Nc3c2nnn3[C@@H](C)c2ccc(Cl)cc2)c2cc(Cl)ccc21 [Compound 43, Methyl 2-((R)-5'-chloro-3-((S)-1-(4-chlorophenyl)ethyl)-2',5-dioxo-3,4,5,6-tetrahydrospiro[[1,2,3]triazolo[4,5-b]pyridine-7,3'-indolin]-1'-yl)acetate] | > 5000 | – | 9 to 76 | > 5000 | > 10000 | – | 11
C[C@@H](c1ccc(Cl)cc1)n1nnc2c1NC(=O)C[C@]21C(=O)N(CC(=O)O)c2ccc(Cl)cc21 [Compound 45, 2-((R)-5'-Chloro-3-((S)-1-(4-chlorophenyl)ethyl)-2',5-dioxo-3,4,5,6-tetrahydrospiro[[1,2,3]triazolo[4,5-b]pyridine-7,3'-indolin]-1ʹ-yl)acetic acid] | – | 2400 | – | – | > 10000 | – | –
C[C@@H](c1ccc(Cl)cc1)n1nnc2c1NC(=O)C[C@]21C(=O)N(CCCCCl)c2ccc(Cl)cc21 [Compound 48, (R)-5'-Chloro-1'-(4-chlorobutyl)-3-((S)-1-(4-chlorophenyl)ethyl)-4,6-dihydrospiro[[1,2,3]triazolo[4,5-b]pyridine-7,3'-indoline]-2',5(3H)-dione] | > 5000 | 37 to 290 | – | > 5000 | > 10000 | 73 | –
C[C@@H](c1ccc(Cl)cc1)n1nnc2c1NC(=O)C[C@]21C(=O)N(CCCCCCBr)c2ccc(Cl)cc21 [Compound 49, (R)-1'-(6-Bromohexyl)-5'-chloro-3-((S)-1-(4-chlorophenyl)ethyl)-4,6-dihydrospiro[[1,2,3]triazolo[4,5-b]pyridine-7,3'-indoline]-2ʹ,5(3H)-dione] | – | 3000 | – | – | > 10000 | – | –
C[C@@H](c1ccc(Cl)cc1)n1nnc2c1NC(=O)C[C@]21C(=O)N(CCCCCCCCBr)c2ccc(Cl)cc21 [Compound 50, (R)-1'-(8-bromooctyl)-5'-chloro-3-((S)-1-(4-chlorophenyl)ethyl)-4,6-dihydrospiro[[1,2,3]triazolo[4,5-b]pyridine-7,3'-indoline]-2',5(3H)-dione] | – | > 5000 | – | – | > 10000 | – | –
